Common to all, as to format: in vivo
Assay [1] relates to Scirpus juncoides. The assay can be described thus: Test Example 1: herbicidal effect test by treatment of rice paddy soil (immediately after seeding). The note with it: 120 g/10a active ingredient, dry weight vs untreated area, 14 days after treatment. The method, boiled down: (§1)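 Paddy soil in pots with compound fertilizer, puddled; 30 seeds per species sown at 0–1 cm, flooded ~3 cm, greenhouse. Water-diluted emulsions dropped onto water immediately after seeding at 120 g active ingredient per 10 ares, duplicate. Herbicidal rate (%) from plant dry weight versus untreated, 14 days after treatment.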

Assay [2] deals with broad leaf weeds (Lindernia pyxidaria and Monochoria vaginalis). Described as above. The note with it: 120 g/10a active ingredient, dry weight vs untreated area, 14 days after treatment; for pest or weed control at 1200 g/ha: 336 h. In outline:
as §1

Assay [3] has as its system Echinochloa crus-galli. The description is as above. The conditions noted are these: 120 g/10a active ingredient, dry weight vs untreated area, 14 days after treatment. The method, boiled down: as §1
Assay [4] concerns Scirpus juncoides. The assay can be described thus: Test Example 2: herbicidal effect test by treatment during growing period in paddy rice cultivation (seven days after seeding). The note with it: 120 g/10a active ingredient, assessed 14 days after treatment, dry weight vs untreated area. The method, boiled down:
(§2)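 Paddy soil in Wagner pots with compound fertilizer, puddled; 30 seeds per species sown at 0–1 cm, flooded ~3 cm, greenhouse. Seven days after seeding, water-diluted emulsions were dropped into the water at 120 g active ingredient per 10 ares. Duplicate pots; herbicidal rate from dry weight versus untreated, 14 days after treatment.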

In assay [5] the test system is broad leaf weeds (Lindernia pyxidaria and Monochoria vaginalis). Described as above. The note with it: 120 g/10a active ingredient, assessed 14 days after treatment, dry weight vs untreated area; for pest or weed control at 1200 g/ha: 336 h. In outline: as §2
Assay [6] relates to Echinochloa crus-galli. Described as above. The note with it: 120 g/10a active ingredient, assessed 14 days after treatment, dry weight vs untreated area. The method, boiled down: as §2
Assay [7] deals with Chenopodium album. The assay can be described thus: Test Example 4: herbicidal effect test by treatment of leave and stem in dry field farming (seven days after seeding). The conditions noted are these: 120 g/10a active ingredient, emulsion sprayed seven days after seeding, evaluated 14 days after treatment. In outline: (§3)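 Weeds were seeded at 20 seeds per species into the top 1 cm of alluvial upland soil in pots, then sprayed 7 days after seeding with water-diluted emulsifiable concentrate at 100 L/10 a, giving 120 g active ingredient/10 a. Duplicate pots; herbicidal rate (%) was 14 days post-treatment, from dry weight versus untreated.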

For assay [8], the system named is Amaranthus viridis. The description is as above. The note with it: 120 g/10a active ingredient, emulsion sprayed seven days after seeding, evaluated 14 days after treatment. In outline:
as §3

The subject of assay [9] is southern crabgrass. Described as above. The conditions noted are these: 120 g/10a active ingredient, emulsion sprayed seven days after seeding, evaluated 14 days after treatment. The method, boiled down:
as §3

Assay [10] has as its system Echinochloa crus-galli. Described as above. The note with it: 120 g/10a active ingredient, emulsion sprayed seven days after seeding, evaluated 14 days after treatment. The method, boiled down: as §3
Assay [11] concerns Chenopodium album. The assay can be described thus: Test Example 3: herbicidal effect test by treatment of dry field farming soil (one day after seeding). The note with it: 120 g/10a active ingredient, evaluated 14 days after treatment. In outline: (§4)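 Pre-emergence soil treatment: alluvial dry-field soil, 20 seeds per species mixed into top 1 cm, emulsion diluted in water sprayed one day after seeding at 100 L per 10 ares (120 g active ingredient per 10 ares). Duplicate pots; herbicidal rate (%) from dry weight vs untreated at 14 days.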

For assay [12], the system named is Amaranthus viridis. Described as above. The conditions noted are these: 120 g/10a active ingredient, evaluated 14 days after treatment. The method, boiled down: as §4
The test system of assay [13] is southern crabgrass. The description is as above. The note with it: 120 g/10a active ingredient, evaluated 14 days after treatment. In outline:
as §4

Assay [14] concerns Echinochloa crus-galli. The assay is described as above. The note with it: 120 g/10a active ingredient, evaluated 14 days after treatment. In outline: as §4

In the case of `CCC(C)n1oc(=O)c(Cc2ccccc2NS(=O)(=O)C(F)(F)F)c1C` (stereo not drawn) [Compound 1-102, 1,1,1-trifluoro-N-[2-[(3-methyl-5-oxo-2-sec-butyl-isoxazol-4-yl)methyl]phenyl]methanesulfonamide], the pest or weed control at 1200 g/ha with Scirpus juncoides [1] (in Schoenoplectiella juncoides, 336 h, read-out: Herbicidal rate (%) Scirpus juncoides) is 100%; in assay [2] (Monochoria vaginalis, read-out: Herbicidal rate (%) Monochoria vaginalis) it was 100%; in [2] (in Lindernia, Lindernia pyxidaria, read-out: Herbicidal rate (%) Lindernia pyxidaria) it was 100%; in the assay on Echinochloa crus-galli [3] (in Echinochloa crus-galli, 336 h, read-out: Herbicidal rate (%) Echinochloa crus-galli), 100%; in the assay with Scirpus juncoides [4] (Schoenoplectiella juncoides, 336 h, read-out: herbicidal rate (%) Scirpus juncoides), 90%; in [5] (Lindernia pyxidaria, read-out: herbicidal rate (%) Lindernia pyxidaria), 60%. The pest or weed control at 1200 g/ha in assay [5] (Monochoria vaginalis, read-out: herbicidal rate (%) Monochoria vaginalis) came out at 90%; with Echinochloa crus-galli [6] (Echinochloa crus-galli, 336 h, read-out: herbicidal rate (%) Echinochloa crus-galli), 90%; in the assay on Chenopodium album [7] (Chenopodium album, 336 h, read-out: herbicidal effect (herbicidal rate), Chenopodium album), 0%; in the assay on Amaranthus viridis [8] (Amaranthus viridis, 336 h, read-out: herbicidal effect (herbicidal rate), Amaranthus viridis), 40%; in the assay with southern crabgrass [9] (Digitaria ciliaris, 336 h, read-out: herbicidal effect (herbicidal rate), southern crabgrass) it was 80%; in the assay on Echinochloa crus-galli [10] (Echinochloa crus-galli, 336 h, read-out: herbicidal effect (herbicidal rate), Echinochloa crus-galli), 90%. In addition, the pest or weed control at 1200 g/ha in the assay on Chenopodium album [11] (Chenopodium album, 336 h, read-out: herbicidal rate, Chenopodium album) was determined as 80%; with Amaranthus viridis [12] (Amaranthus viridis, 336 h, read-out: herbicidal rate, Amaranthus viridis), 80%; in the assay on southern crabgrass [13] (Digitaria ciliaris, 336 h, read-out: herbicidal rate, southern crabgrass), 90%; in the assay with Echinochloa crus-galli [14] (Echinochloa crus-galli, 336 h, read-out: herbicidal rate, Echinochloa crus-galli), 90%.
With `Cc1ccc(C(C)n2oc(=O)c(Cc3ccccc3NS(=O)(=O)C(F)(F)F)c2C)cc1` (stereo not drawn) [Compound 1-208], the figures for the “Herbicidal rate (%) Scirpus juncoides” value in the assay with Scirpus juncoides [1] and in the assay with Scirpus juncoides [4] were 90% and 80%, respectively. For the same compound, the entries for the “Herbicidal rate (%) Lindernia pyxidaria” value in [2] (Lindernia pyxidaria) and in [5] (Lindernia pyxidaria) were 80% and 60%, respectively. For the same compound, the “Herbicidal rate (%) Monochoria vaginalis” value in assay [2] (Monochoria vaginalis) and in [5] (Monochoria vaginalis) was 90% throughout. For the same compound, the “Herbicidal rate (%) Echinochloa crus-galli” value in the assay with Echinochloa crus-galli [3] and with Echinochloa crus-galli [6] was 90% each time. In addition, the “herbicidal effect (herbicidal rate), Chenopodium album” value (“herbicidal effect … Chenopodium album” for short) in the assay with Chenopodium album [7] is given as 40%. Also, the “herbicidal effect (herbicidal rate), Amaranthus viridis” value (“herbicidal effect … Amaranthus viridis” below) in the assay with Amaranthus viridis [8] was 40%. In addition, in the assay with southern crabgrass [9], the “herbicidal effect (herbicidal rate), southern crabgrass” value (“herbicidal effect … southern crabgrass” below) amounted to 0%. For the same compound, the “herbicidal effect (herbicidal rate), Echinochloa crus-galli” value in the assay on Echinochloa crus-galli [10] was found to be 90%. Further, the “herbicidal rate, Chenopodium album” value in the assay on Chenopodium album [11] turned out to be 40%. In addition, the “herbicidal rate, Amaranthus viridis” value in the assay with Amaranthus viridis [12] was 40%. In the assay with southern crabgrass [13], the “herbicidal rate, southern crabgrass” value is given as 50%. Further, the “herbicidal rate, Echinochloa crus-galli” value in the assay with Echinochloa crus-galli [14] stood at 100%.
`CCC(CC)n1oc(=O)c(Cc2ccccc2N(C(=O)CC(C)C)S(=O)(=O)C(F)(F)F)c1C` [Compound 1-353]: the “Herbicidal rate (%) Scirpus juncoides” value in the assay with Scirpus juncoides [1] and in the assay on Scirpus juncoides [4] was 90% in each case. Further, the “Herbicidal rate (%) Lindernia pyxidaria” value in assay [2] (Lindernia pyxidaria) and in assay [5] (Lindernia pyxidaria) was 90% throughout. Moreover, the “Herbicidal rate (%) Monochoria vaginalis” value in assay [2] (Monochoria vaginalis) and in assay [5] (Monochoria vaginalis) was 90% in each case. The “Herbicidal rate (%) Echinochloa crus-galli” value with Echinochloa crus-galli [3] and with Echinochloa crus-galli [6] was 90% each time. Moreover, the “herbicidal effect … Chenopodium album” value in the assay with Chenopodium album [7] stood at 40%. Also, the “herbicidal effect … Amaranthus viridis” value in the assay on Amaranthus viridis [8] was determined as 40%. Moreover, the “herbicidal effect … southern crabgrass” value in the assay on southern crabgrass [9] was 90%. Also, the “herbicidal effect (herbicidal rate), Echinochloa crus-galli” value in the assay on Echinochloa crus-galli [10] was found to be 90%. Further, the “herbicidal rate, Chenopodium album” value with Chenopodium album [11] was 90%. Besides, in the assay with Amaranthus viridis [12], the “herbicidal rate, Amaranthus viridis” value was 90%. In addition, the “herbicidal rate, southern crabgrass” value with southern crabgrass [13] is on record as 90%. In the assay with Echinochloa crus-galli [14], the “herbicidal rate, Echinochloa crus-galli” value is 90%.
With `CC(=O)N(c1ccccc1Cc1c(C)n(CC(C)(C)C)oc1=O)S(=O)(=O)C(F)(F)F` [Compound 1-298], the “Herbicidal rate (%) Scirpus juncoides” value in the assay on Scirpus juncoides [1] and in the assay on Scirpus juncoides [4] was 90% throughout. Besides, the “Herbicidal rate (%) Lindernia pyxidaria” value in assay [2] (Lindernia pyxidaria) and in [5] (Lindernia pyxidaria) was 90% each time. In addition, the “Herbicidal rate (%) Monochoria vaginalis” value in assay [2] (Monochoria vaginalis) and in [5] (Monochoria vaginalis) was 90% each time. Moreover, the “Herbicidal rate (%) Echinochloa crus-galli” value with Echinochloa crus-galli [3] and with Echinochloa crus-galli [6] was 90% throughout. For the same compound, in the assay with Chenopodium album [7], the “herbicidal effect … Chenopodium album” value came out at 40%. In the assay on Amaranthus viridis [8], the “herbicidal effect … Amaranthus viridis” value turned out to be 40%. Further, the “herbicidal effect … southern crabgrass” value with southern crabgrass [9] turned out to be 90%. Moreover, the “herbicidal effect (herbicidal rate), Echinochloa crus-galli” value in the assay on Echinochloa crus-galli [10] was determined as 90%. In the assay with Chenopodium album [11], the “herbicidal rate, Chenopodium album” value came out at 90%. In addition, the “herbicidal rate, Amaranthus viridis” value in the assay with Amaranthus viridis [12] amounted to 90%. The “herbicidal rate, southern crabgrass” value in the assay on southern crabgrass [13] is listed as 90%. In the assay on Echinochloa crus-galli [14], the “herbicidal rate, Echinochloa crus-galli” value is listed as 90%.
Regarding `CCNC(=O)N(c1ccccc1Cc1c(C)n(C(C)c2ccccc2)oc1=O)S(=O)(=O)C(F)(F)F` (stereo not drawn) [Compound 1-874], the “Herbicidal rate (%) Scirpus juncoides” value in the assay with Scirpus juncoides [1] and with Scirpus juncoides [4] was 90% in each case. Further, the “Herbicidal rate (%) Lindernia pyxidaria” value in assay [2] (Lindernia pyxidaria) and in assay [5] (Lindernia pyxidaria) was 90% throughout. In addition, the “Herbicidal rate (%) Monochoria vaginalis” value in assay [2] (Monochoria vaginalis) and in assay [5] (Monochoria vaginalis) was 90% throughout. Moreover, the “Herbicidal rate (%) Echinochloa crus-galli” value with Echinochloa crus-galli [3] and in the assay with Echinochloa crus-galli [6] was 90% in each case. Further, the “herbicidal effect … Chenopodium album” value with Chenopodium album [7] came to 40%. Also, the “herbicidal effect … Amaranthus viridis” value with Amaranthus viridis [8] is 40%. Besides, the “herbicidal effect … southern crabgrass” value in the assay with southern crabgrass [9] is listed as 90%. In addition, the “herbicidal effect (herbicidal rate), Echinochloa crus-galli” value in the assay on Echinochloa crus-galli [10] came to 90%. The “herbicidal rate, Chenopodium album” value in the assay on Chenopodium album [11] worked out at 90%. Besides, the “herbicidal rate, Amaranthus viridis” value with Amaranthus viridis [12] is 90%. Besides, in the assay on southern crabgrass [13], the “herbicidal rate, southern crabgrass” value turned out to be 90%. The “herbicidal rate, Echinochloa crus-galli” value in the assay on Echinochloa crus-galli [14] was found to be 90%.
Regarding `CCCC(C)n1oc(=O)c(Cc2ccccc2NS(=O)(=O)C(F)(F)F)c1C` (stereo not drawn) [Compound 1-109], the “Herbicidal rate (%) Scirpus juncoides” value in the assay on Scirpus juncoides [1] is 100%; with Scirpus juncoides [4], 90%. In addition, the entries for the “Herbicidal rate (%) Lindernia pyxidaria” value in assay [2] (Lindernia pyxidaria) and in assay [5] (Lindernia pyxidaria) were 100% and 70%, respectively. Moreover, the “Herbicidal rate (%) Monochoria vaginalis” value is listed as 100% in assay [2] (Monochoria vaginalis) and 90% in [5] (Monochoria vaginalis). Also, the “Herbicidal rate (%) Echinochloa crus-galli” value in the assay on Echinochloa crus-galli [3] is on record as 100%; in the assay on Echinochloa crus-galli [6], 90%. Also, the “herbicidal effect … Chenopodium album” value in the assay with Chenopodium album [7] came to 50%. The “herbicidal effect … Amaranthus viridis” value in the assay with Amaranthus viridis [8] is 70%. Also, the “herbicidal effect … southern crabgrass” value in the assay on southern crabgrass [9] turned out to be 80%. The “herbicidal effect (herbicidal rate), Echinochloa crus-galli” value with Echinochloa crus-galli [10] is recorded as 90%. Besides, the “herbicidal rate, Chenopodium album” value in the assay with Chenopodium album [11] was determined as 60%. Moreover, the “herbicidal rate, Amaranthus viridis” value in the assay on Amaranthus viridis [12] came out at 60%. Also, the “herbicidal rate, southern crabgrass” value with southern crabgrass [13] is reported as 90%. Further, the “herbicidal rate, Echinochloa crus-galli” value with Echinochloa crus-galli [14] was 90%.

(Values after patent US11109593B2, “Isoxazolin-5-one derivative and herbicide containing same as active ingredient” (HOKKO CHEMICAL INDUSTRY CO., LTD., priority 2017, dated 2021).)
